What is called EC50 is the concentration giving half of the maximal effect.

The results in this text go back to US10829473B2, “Modulators of the cystic fibrosis transmembrane conductance regulator protein and methods of use” (AbbVie Overseas S.Á.R.L., priority 2017, dated 2020).

This experiment addresses T1, F508delCFTR (Homo sapiens, UniProt P13569, DEL508-508).
T1 construct: expressed in transfected cells; host or cells: CFBE41o- human lung derived epithelial cells (CFBE41o-F508delCFTR-HRP), doxycycline-inducible
Kind of experiment: Cell Surface Expression-Horse Radish Peroxidase (CSE-HRP) Assay.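 As to EC50 (with co-corrector): co-corrector chromenyl benzoic acid corrector at 2 or 3 µM.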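 As to Maximum % activity (without co-corrector): % of on-plate positive control chromenyl benzoic acid corrector at 2 or 3 µM.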 Format: cell-based. The following applies: for Maximum % activity (with co-corrector) / Emax: maximum at any tested concentration; for Emax: read-out: Maximum % activity (without co-corrector). In short, it runs like this:
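Corrector compounds were given as 8-point 3-fold series from 20 or 30 μM, with or without a 2 μM co-corrector, for 18-24 h at 33 °C. Surface HRP was read by luminol luminescence as % of positive control; variable-Hill-slope sigmoidal fitting gave EC50 from triplicate plates.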

[1] abbreviates: test compound alone, without co-corrector, read-out: EC50 (without co-corrector).
The mark [2] stands for this setting: with co-corrector, read-out: EC50 (with co-corrector).
The mark [3] stands for this setting: test compound with co-corrector.
Where [4] appears, read: test compound with co-corrector, read-out: EC50 (with co-corrector).
Where [5] appears, read: test compound without co-corrector.
The mark [6] stands for this setting: test compound without co-corrector, read-out: EC50 (without co-corrector).

Like-named read-outs stand apart in the source and are kept apart here. Marks after values point to notes of the source that are not given here.

T1 sequence (P13569 with tags, fused parts or gaps DEL508-508): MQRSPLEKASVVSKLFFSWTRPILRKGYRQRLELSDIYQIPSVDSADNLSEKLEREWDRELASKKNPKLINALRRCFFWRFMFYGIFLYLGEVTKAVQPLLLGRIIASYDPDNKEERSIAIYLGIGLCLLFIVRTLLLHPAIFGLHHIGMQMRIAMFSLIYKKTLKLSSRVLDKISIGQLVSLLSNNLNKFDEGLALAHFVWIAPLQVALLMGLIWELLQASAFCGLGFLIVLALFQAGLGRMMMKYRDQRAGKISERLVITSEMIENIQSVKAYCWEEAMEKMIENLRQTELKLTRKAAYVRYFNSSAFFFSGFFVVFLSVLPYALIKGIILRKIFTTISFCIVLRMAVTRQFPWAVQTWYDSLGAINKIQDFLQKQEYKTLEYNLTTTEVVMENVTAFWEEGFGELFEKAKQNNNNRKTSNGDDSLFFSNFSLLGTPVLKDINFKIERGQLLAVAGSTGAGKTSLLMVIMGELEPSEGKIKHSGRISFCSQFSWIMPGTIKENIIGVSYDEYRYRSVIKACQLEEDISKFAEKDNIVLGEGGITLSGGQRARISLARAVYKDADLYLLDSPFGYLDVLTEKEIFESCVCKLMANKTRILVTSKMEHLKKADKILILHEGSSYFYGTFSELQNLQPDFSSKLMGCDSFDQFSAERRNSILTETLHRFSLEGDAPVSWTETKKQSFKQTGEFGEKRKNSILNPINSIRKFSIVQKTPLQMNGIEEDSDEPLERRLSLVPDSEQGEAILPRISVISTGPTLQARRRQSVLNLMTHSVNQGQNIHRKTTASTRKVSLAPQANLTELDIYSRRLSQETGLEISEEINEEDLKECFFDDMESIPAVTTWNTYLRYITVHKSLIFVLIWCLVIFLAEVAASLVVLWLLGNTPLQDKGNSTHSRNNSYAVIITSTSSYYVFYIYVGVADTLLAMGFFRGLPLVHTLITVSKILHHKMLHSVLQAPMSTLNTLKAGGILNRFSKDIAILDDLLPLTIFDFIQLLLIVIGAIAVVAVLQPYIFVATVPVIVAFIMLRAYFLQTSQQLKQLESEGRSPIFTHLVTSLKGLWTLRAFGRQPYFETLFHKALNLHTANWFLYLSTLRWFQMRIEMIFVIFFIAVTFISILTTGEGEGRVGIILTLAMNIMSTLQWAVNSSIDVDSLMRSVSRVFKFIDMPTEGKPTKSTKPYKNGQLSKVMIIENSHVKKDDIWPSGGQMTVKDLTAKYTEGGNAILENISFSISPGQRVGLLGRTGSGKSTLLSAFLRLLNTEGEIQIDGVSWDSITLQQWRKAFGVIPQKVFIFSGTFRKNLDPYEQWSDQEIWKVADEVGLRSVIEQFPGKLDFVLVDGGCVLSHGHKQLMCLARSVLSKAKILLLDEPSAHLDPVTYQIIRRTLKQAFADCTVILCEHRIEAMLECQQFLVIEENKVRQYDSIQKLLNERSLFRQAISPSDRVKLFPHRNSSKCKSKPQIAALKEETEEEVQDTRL

On to `Cc1cnc(OCC(C)C)c(C2(C(=O)NS(=O)(=O)c3cccc4nc(N)ccc34)CC2)c1` [Example I-96, N-(2-aminoquinoline-5-sulfonyl)-1-[5-methyl-2-(2-methylpropoxy)pyridin-3-yl]cyclopropane-1-carboxamide], for which the EC50 reads like this: under setting [1], less than 3 µM; under setting [2], less than 3 µM. For the same molecule, for the setting “with co-corrector”, the “Maximum % activity (with co-corrector)” value is “+++ (≥350)”. In addition, where the note is “without co-corrector”, the Emax is more than 150%.
Consider `O=C(NS(=O)(=O)c1cccc2ncccc12)C1(c2cc(C3CCC3)cnc2OCC2CC2)CC1` [Example GI-100, 1-[5-cyclobutyl-2-(cyclopropylmethoxy)pyridin-3-yl]-N-(quinoline-5-sulfonyl)cyclopropane-1-carboxamide], for which the “Maximum % activity (with co-corrector)” value under setting [3] is “+++ (≥350)”. For the same molecule, the EC50 was less than 3 µM under setting [4] and less than 3 µM under setting [6]. The Emax under setting [5] is more than 150%.
As to `COc1ncc(C2CCC2)cc1C1(C(=O)NS(=O)(=O)c2cccc3[nH]ncc23)CC1` [II-15], the EC50 reads like this: under setting [1], 3 to 10 µM; under setting [2], less than 3 µM. Besides, for the setting “with co-corrector”, the “Maximum % activity (with co-corrector)” value is listed as “+++ (≥350)”. Also, the Emax (without co-corrector) was more than 150%.
With `Cc1ccc(OC2COC2)c(C2(C(=O)NS(=O)(=O)c3cccc4ncccc34)CC2)c1` [Example I-93, 1-{5-methyl-2-[(oxetan-3-yl)oxy]phenyl}-N-(quinoline-5-sulfonyl)cyclopropane-1-carboxamide], the EC50 is, setting by setting: under setting [1], 3 to 10 µM; under setting [2], less than 3 µM. For the same molecule, the “Maximum % activity (with co-corrector)” value (with co-corrector) is recorded as “+++ (≥350)”. Where the note is “without co-corrector”, the Emax was more than 150%.
For the molecule `CCc1ccc(O[C@H](C)COC)c(C2(C(=O)NS(=O)(=O)c3cccc4ncccc34)CC2)c1` [Example I-111, 1-(5-ethyl-2-{[(2R)-1-methoxypropan-2-yl]oxy}phenyl)-N-(quinoline-5-sulfonyl)cyclopropane-1-carboxamide], the EC50 reads like this: under setting [1], less than 3 µM; under setting [2], less than 3 µM. Under “with co-corrector”, the “Maximum % activity (with co-corrector)” value is listed as “+++ (≥350)”. The Emax (without co-corrector) is more than 150%.
Turning to `Cc1ccc(C)c(C2(C(=O)NS(=O)(=O)c3cccc4[nH]ccc34)CC2)c1` [II-80], the EC50 under setting [1] lay within 3 to 10 µM and the EC50 under setting [2] was less than 3 µM. Further, the “Maximum % activity (with co-corrector)” value (with co-corrector) is “+++ (≥350)”. Further, the Emax (without co-corrector) is more than 150%.
As for `Cc1ccccc1S(=O)(=O)NC(=O)C1(c2ccc(Cl)cc2)CC1` [Example III-88, 1-(4-chlorophenyl)-N-(2-methylbenzene-1-sulfonyl)cyclopropane-1-carboxamide], the EC50 under setting [1] is 3 to 10 µM and the EC50 under setting [2] is 3 to 10 µM. The “Maximum % activity (with co-corrector)” value (with co-corrector) was “++ (≥150 and <350)”. Also, for the setting “without co-corrector”, the Emax is less than 50%.
Regarding `COc1ccc(C(F)(F)F)cc1C1(C(=O)NS(=O)(=O)c2cccc3c2CCCN3)CC1` [II-28], the EC50 was less than 3 µM under setting [1] and less than 3 µM under setting [2]. Moreover, the “Maximum % activity (with co-corrector)” value (with co-corrector) is recorded as “+++ (≥350)”. Also, under “without co-corrector”, the Emax is more than 150%.
For the molecule `COc1ccc(C2CCC2)cc1C1(C(=O)NS(=O)(=O)c2cccc3ncccc23)CC1` [Example I-17, 1-(5-cyclobutyl-2-methoxyphenyl)-N-(quinoline-5-sulfonyl)cyclopropane-1-carboxamide], the EC50 under setting [1] is less than 3 µM and the EC50 under setting [2] is less than 3 µM. The “Maximum % activity (with co-corrector)” value (with co-corrector) is reported as “+++ (≥350)”. In addition, for the setting “without co-corrector”, the Emax was more than 150%.
Turning to `COc1cccc(OCC2CC2)c1C1(C(=O)NS(=O)(=O)c2cccc3ncccc23)CC1` [Example I-46, 1-[2-(cyclopropylmethoxy)-6-methoxyphenyl]-N-(quinoline-5-sulfonyl)cyclopropane-1-carboxamide], the EC50 is less than 3 µM under setting [1] and less than 3 µM under setting [2]. Further, for the setting “with co-corrector”, the “Maximum % activity (with co-corrector)” value is on record as “+++ (≥350)”. In addition, the Emax (without co-corrector) was more than 150%.
With `Cc1cnc(N2CCN(C)CC2)c(C2(C(=O)NS(=O)(=O)c3cccc4ncccc34)CC2)c1` [GIII-26], under setting [3], the “Maximum % activity (with co-corrector)” value is “++ (≥150 and <350)”. Besides, the EC50 was more than 10 µM under setting [4] and more than 10 µM under setting [6]. Moreover, the Emax under setting [5] was less than 50%.
For `Cc1cnc(F)cc1C1(C(=O)NS(=O)(=O)c2cccc3c2CCCN3)CC1` [GIII-7], under setting [3], the “EC50 (with co-corrector)” value was “++^a”; the “Maximum % activity (with co-corrector)” value was “++ (≥150 and <350)”. Under setting [5], the “EC50 (without co-corrector)” value is recorded as “++^a” and the Emax was less than 50%.
Consider `O=C(NS(=O)(=O)c1ccc(Cl)cc1)C1(c2ccc(Cl)cc2Cl)CC1` [Example III-9, N-(4-chlorobenzene-1-sulfonyl)-1-(2,4-dichlorophenyl)cyclopropane-1-carboxamide], for which the EC50 runs as follows: under setting [1], more than 10 µM; under setting [2], 3 to 10 µM. Moreover, where the note is “with co-corrector”, the “Maximum % activity (with co-corrector)” value is recorded as “+ (<150)”. Besides, under “without co-corrector”, the Emax was less than 50%.
As to `Cc1ccc2c(S(=O)(=O)NC(=O)C3(c4cc(N5CCC5)cnc4OC(C)C)CC3)cccc2n1` [Example GI-84, 1-{5-(azetidin-1-yl)-2-[(propan-2-yl)oxy]pyridin-3-yl}-N-(2-methylquinoline-5-sulfonyl)cyclopropane-1-carboxamide], under setting [3], the “Maximum % activity (with co-corrector)” value was “+++ (≥350)”. For the same molecule, the EC50 by setting is: under setting [4], less than 3 µM; under setting [6], 3 to 10 µM. Moreover, under setting [5], the Emax is more than 150%.
As for `O=C(NS(=O)(=O)c1cccc2[nH]ccc12)C1(c2cc(C3CCC3)cnc2N2CCCC2)CC1` [Example GI-30, 1-[5-cyclobutyl-2-(pyrrolidin-1-yl)pyridin-3-yl]-N-(1H-indole-4-sulfonyl)cyclopropane-1-carboxamide], under setting [3], the “Maximum % activity (with co-corrector)” value is listed as “+++ (≥350)”. Besides, the EC50 was less than 3 µM under setting [4] and less than 3 µM under setting [6]. Further, under setting [5], the Emax was more than 150%.
Turning to `COc1cc(C2CCC2)cc(OC)c1C1(C(=O)NS(=O)(=O)c2cccc3ncccc23)CC1` [Example I-80, 1-(4-cyclobutyl-2,6-dimethoxyphenyl)-N-(quinoline-5-sulfonyl)cyclopropane-1-carboxamide], the EC50 is 3 to 10 µM under setting [1] and less than 3 µM under setting [2]. For the same molecule, for the setting “with co-corrector”, the “Maximum % activity (with co-corrector)” value is “+++ (≥350)”. Also, where the note is “without co-corrector”, the Emax is more than 150%.
Consider `CCc1ccc(O[C@@H]2CCOC2)c(C2(C(=O)NS(=O)(=O)c3cccc4nc(C)ccc34)CC2)c1` [Example I-119, 1-(5-ethyl-2-{[(3R)-oxolan-3-yl]oxy}phenyl)-N-(2-methylquinoline-5-sulfonyl)cyclopropane-1-carboxamide], for which the EC50 under setting [1] was less than 3 µM and the EC50 under setting [2] is less than 3 µM. For the same molecule, under “with co-corrector”, the “Maximum % activity (with co-corrector)” value is given as “+++ (≥350)”. Besides, the Emax (without co-corrector) was more than 150%.
In the case of `CCc1cnc(N2CCC(COC)CC2)c(C2(C(=O)NS(=O)(=O)c3cccc4ncccc34)CC2)c1` [GII-59, 1-{5-ethyl-2-[4-(methoxymethyl)piperidin-1-yl]pyridin-3-yl}-N-(quinoline-5-sulfonyl)cyclopropane-1-carboxamide], under setting [3], the “Maximum % activity (with co-corrector)” value is reported as “+++ (≥350)”. For the same molecule, the EC50 reads like this: under setting [4], 3 to 10 µM; under setting [6], 3 to 10 µM. Under setting [5], the Emax is more than 150%.
In the case of `COc1ccc(C2CC2)cc1C1(C(=O)NS(=O)(=O)c2cccc3ncccc23)CC1` [II-57], the “Maximum % activity (with co-corrector)” value (with co-corrector) was “+++ (≥350)”. For the same molecule, the Emax (without co-corrector) is more than 150%.
On to `COc1cnc(OCC(C)C)c(C2(C(=O)NS(=O)(=O)c3cccc4nc(C)ccc34)CC2)c1` [Example GI-79, 1-[5-methoxy-2-(2-methylpropoxy)pyridin-3-yl]-N-(2-methylquinoline-5-sulfonyl)cyclopropane-1-carboxamide], for which the “Maximum % activity (with co-corrector)” value under setting [3] is listed as “+++ (≥350)”. For the same molecule, the EC50 reads like this: under setting [4], less than 3 µM; under setting [6], less than 3 µM. Under setting [5], the Emax was more than 150%.
As for `COc1ccc(S(=O)(=O)NC(=O)C2(c3ccc(Cl)cc3Cl)CC2)cc1OC` [Example III-25, 1-(2,4-dichlorophenyl)-N-(3,4-dimethoxybenzene-1-sulfonyl)cyclopropane-1-carboxamide], the EC50 is more than 10 µM under setting [1] and 3 to 10 µM under setting [2]. For the same molecule, the “Maximum % activity (with co-corrector)” value (with co-corrector) was “+ (<150)”. For the same molecule, the Emax (without co-corrector) was less than 50%.
As to `Cc1cnc(N2CCCC2)c(C2(C(=O)NS(=O)(=O)c3cccc4ncccc34)CC2)c1` [GII-38, 1-[5-methyl-2-(pyrrolidin-1-yl)pyridin-3-yl]-N-(quinoline-5-sulfonyl)cyclopropane-1-carboxamide], under setting [3], the “Maximum % activity (with co-corrector)” value is recorded as “+++ (≥350)”. The EC50 fell in the range of 3 to 10 µM under setting [4] and 3 to 10 µM under setting [6]. In addition, under setting [5], the Emax was more than 150%.
Turning to `CC(C)Oc1ncc(C2CCC2)cc1C1(C(=O)NS(=O)(=O)c2cccc3[nH]ccc23)CC1` [Example GI-24, 1-{5-cyclobutyl-2-[(propan-2-yl)oxy]pyridin-3-yl}-N-(1H-indole-4-sulfonyl)cyclopropane-1-carboxamide], the EC50 under setting [1] is less than 3 µM and the EC50 under setting [2] is less than 3 µM. The “Maximum % activity (with co-corrector)” value (with co-corrector) is recorded as “+++ (≥350)”. Further, the Emax (without co-corrector) was more than 150%.
On to `O=C(OCc1ccccc1)N1CCC(S(=O)(=O)NC(=O)C2(c3ccc(Cl)c(Cl)c3)CC2)CC1` [Example III-70, benzyl 4-{[1-(3,4-dichlorophenyl)cyclopropane-1-carbonyl]sulfamoyl}piperidine-1-carboxylate], for which the EC50 by setting is: under setting [1], more than 10 µM; under setting [2], more than 10 µM. In addition, the “Maximum % activity (with co-corrector)” value (with co-corrector) is on record as “+ (<150)”. Under “without co-corrector”, the Emax was less than 50%.
Turning to `CN1CCN(c2ncc(C3CC3)cc2C2(C(=O)NS(=O)(=O)c3cccc4[nH]ccc34)CC2)CC1` [GIII-36], the “Maximum % activity (with co-corrector)” value under setting [3] is given as “+ (<150)”. For the same molecule, the EC50 was more than 10 µM under setting [4] and more than 10 µM under setting [6]. The Emax under setting [5] is less than 50%.
